ChEMBL document CHEMBL1201862, “PubChem BioAssay data set” (2004)
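Method: 48-hour compound exposure of cells in 96-well plates, five concentrations, linear interpolation of endpoints. Abbreviation: GI50, concentration required for 50% inhibition of growth.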 The source made the active and inactive calls. Rule as the data show it: active = GI50 up to about 1.1 µM and inactive = higher.

Legend:
Assay in all cases: NCI-60 cell line screen, 48 h
IGROV-1 = tested on: IGROV-1
SR = tested on: SR
SNB-19 = tested on: SNB-19
MDA-MB-231 = tested on: MDA-MB-231
SNB-75 = tested on: SNB-75
HOP-92 = tested on: HOP-92
HCT-15 = tested on: HCT-15
UACC-62 = tested on: UACC-62
NCI-H460 = tested on: NCI-H460
KM12 = tested on: KM12
RXF 393 = tested on: RXF 393
HL-60 = tested on: HL-60
UO-31 = tested on: UO-31
EKVX = tested on: EKVX
SF-295 = tested on: SF-295
SK-MEL-28 = tested on: SK-MEL-28
LOX IMVI = tested on: LOX IMVI
SW-620 = tested on: SW-620
OVCAR-4 = tested on: OVCAR-4
HCC 2998 = tested on: HCC 2998

SMILES	GI50 (IGROV-1)	GI50 (SR)	GI50 (SNB-19)	GI50 (MDA-MB-231)	GI50 (SNB-75)	GI50 (HOP-92)	GI50 (HCT-15)	GI50 (UACC-62)	GI50 (NCI-H460)	GI50 (KM12)	GI50 (RXF 393)	GI50 (HL-60)	GI50 (UO-31)	GI50 (EKVX)	GI50 (SF-295)	GI50 (SK-MEL-28)	GI50 (LOX IMVI)	GI50 (SW-620)	GI50 (OVCAR-4)	GI50 (HCC 2998)
COC(=O)CCCC(=O)/C(=N\Nc1ccc(Cl)cc1)Nc1c(Cl)cccc1Cl	> 81.7 µM (inactive)	20.5 µM (inactive)	35.7 µM (inactive)	> 82.8 µM (inactive)	27.5 µM (inactive)	45 µM (inactive)	72.3 µM	60 µM (inactive)	26.7 µM (inactive)	32 µM (inactive)	8.69 µM (inactive)	7.06 µM (inactive)	34.4 µM (inactive)	51.8 µM (inactive)	35.2 µM (inactive)	> 89.3 µM (inactive)	64.1 µM (inactive)	> 100 µM (inactive)	46.3 µM (inactive)	58.7 µM (inactive)
CCN(CC)C(=O)Cn1c2ccccc2[n+]2cc(N)ccc12	> 100 µM (inactive)	> 100 µM (inactive)	> 100 µM (inactive)	> 100 µM (inactive)	> 100 µM (inactive)	> 100 µM (inactive)	> 100 µM	> 100 µM (inactive)	> 100 µM (inactive)	> 100 µM (inactive)	> 100 µM (inactive)	> 100 µM (inactive)	> 100 µM (inactive)	> 100 µM (inactive)	> 100 µM (inactive)	> 100 µM (inactive)	> 100 µM (inactive)	> 100 µM (inactive)	> 100 µM (inactive)	> 100 µM (inactive)
Cc1cc(S(=O)(=O)N2CCNNC2=O)c(S)cc1Cl	87.9 µM (inactive)	> 100 µM (inactive)	> 100 µM (inactive)	23.8 µM (inactive)	> 100 µM (inactive)	48.4 µM (inactive)	56.5 µM	> 100 µM (inactive)	> 100 µM (inactive)	> 100 µM (inactive)	13.7 µM (inactive)	39.7 µM (inactive)	> 100 µM (inactive)	> 100 µM (inactive)	> 100 µM (inactive)	20 µM (inactive)	28.8 µM (inactive)	36.9 µM (inactive)	> 100 µM (inactive)	> 100 µM (inactive)
COc1ccc(NC(C)=O)cc1N1C(=O)/C(=C\c2cccc(Oc3ccccc3)c2)SC1c1ccccc1 (stereo not drawn)	27.4 µM (inactive)	3.7 µM (inactive)	69.3 µM (inactive)	37.8 µM (inactive)	38.6 µM (inactive)	20.9 µM (inactive)	33.1 µM	26.7 µM (inactive)	36.4 µM (inactive)	37.6 µM (inactive)	39.7 µM (inactive)	16.9 µM (inactive)	17.3 µM (inactive)	33.3 µM (inactive)	28.4 µM (inactive)	28.3 µM (inactive)	13.4 µM (inactive)	21.6 µM (inactive)	14.2 µM (inactive)	36.1 µM (inactive)
CCOC(=O)C1(Cc2ccc(C)cc2)Cc2ccc(C)cc2C1=O (stereo not drawn)	21.1 µM (inactive)	3.61 µM (inactive)	36.6 µM (inactive)	16.5 µM (inactive)	24.3 µM (inactive)	14.6 µM (inactive)	7.85 µM	11.8 µM (inactive)	27.9 µM (inactive)	4.57 µM (inactive)	4.6 µM (inactive)	2.55 µM (inactive)	38.5 µM (inactive)	36.7 µM (inactive)	15.4 µM (inactive)	20.2 µM (inactive)	12.4 µM (inactive)	4.71 µM (inactive)	36.4 µM (inactive)	16.8 µM (inactive)
Cc1cc(S(=O)(=O)Nc2nc(Nc3ccc4ccccc4c3)n[nH]2)c(S)cc1Cl	52.8 µM (inactive)	> 100 µM (inactive)	49.3 µM (inactive)	92.9 µM (inactive)	43.3 µM (inactive)	52.5 µM (inactive)	42.3 µM	66.4 µM (inactive)	34.8 µM (inactive)	25.4 µM (inactive)	75.2 µM (inactive)	> 100 µM (inactive)	> 100 µM (inactive)	> 100 µM (inactive)	30.2 µM (inactive)	> 100 µM (inactive)	45.6 µM (inactive)	44.7 µM (inactive)	79.1 µM (inactive)	61.4 µM (inactive)
CCOC(=O)C1=C(C)C(C(=O)OC)/C(=C/c2cccc3cccnc23)C1=O (stereo not drawn)	> 10 µM (inactive)	> 10 µM (inactive)	> 10 µM (inactive)	> 10 µM (inactive)	> 10 µM (inactive)	> 10 µM (inactive)	> 10 µM	> 10 µM (inactive)	> 10 µM (inactive)	> 10 µM (inactive)	> 10 µM (inactive)	9.82 µM (inactive)	> 10 µM (inactive)	> 10 µM (inactive)	> 10 µM (inactive)	> 10 µM (inactive)	> 10 µM (inactive)	> 10 µM (inactive)	> 10 µM (inactive)	> 10 µM (inactive)
O=C(Nc1ccc(Cl)cc1)c1cc2c(cc1Cl)SC(NNCCO)=NS2(=O)=O	> 100 µM (inactive)	> 100 µM (inactive)	> 100 µM (inactive)	> 100 µM (inactive)	> 100 µM (inactive)	92.3 µM (inactive)	> 100 µM	> 100 µM (inactive)	> 100 µM (inactive)	> 100 µM (inactive)	> 100 µM (inactive)	> 100 µM (inactive)	> 100 µM (inactive)	> 100 µM (inactive)	> 100 µM (inactive)	> 100 µM (inactive)	> 100 µM (inactive)	> 100 µM (inactive)	> 100 µM (inactive)	> 100 µM (inactive)
COc1ccc(/C=C/C(=O)N[C@@H]2C(=O)N3[C@@H]2SC(C)(C)[C@@H]3C(=O)O)cc1	–	> 100 µM (inactive)	> 100 µM (inactive)	> 100 µM (inactive)	> 100 µM (inactive)	47.8 µM (inactive)	> 100 µM	> 100 µM (inactive)	> 100 µM (inactive)	> 100 µM (inactive)	> 100 µM (inactive)	> 100 µM (inactive)	> 100 µM (inactive)	> 100 µM (inactive)	> 100 µM (inactive)	> 100 µM (inactive)	> 100 µM (inactive)	> 100 µM (inactive)	> 100 µM (inactive)	> 100 µM (inactive)
Cc1nc2c(o1)C(=O)c1ccccc1/C2=N\c1ccccc1	7.98 µM (inactive)	4.3 µM (inactive)	3.96 µM (inactive)	0.968 µM (active)	2.12 µM (inactive)	2.27 µM (inactive)	2.25 µM	2.46 µM (inactive)	5.66 µM (inactive)	6.07 µM (inactive)	1.57 µM (inactive)	2.42 µM (inactive)	2.98 µM (inactive)	5.78 µM (inactive)	4.53 µM (inactive)	2 µM (inactive)	1.59 µM (inactive)	2.58 µM (inactive)	2.4 µM (inactive)	15.2 µM (inactive)
Cc1nc(N)nc(N)c1N1CCN(Cc2ccccc2)CC1	19.9 µM (inactive)	36.6 µM (inactive)	55.5 µM (inactive)	> 86.3 µM (inactive)	> 52.5 µM (inactive)	35.3 µM (inactive)	9.42 µM	30.5 µM (inactive)	5.87 µM (inactive)	27 µM (inactive)	13.4 µM (inactive)	25.1 µM (inactive)	45.4 µM (inactive)	> 53.6 µM (inactive)	7.06 µM (inactive)	> 78.9 µM (inactive)	8.15 µM (inactive)	38.9 µM (inactive)	> 100 µM (inactive)	25.2 µM (inactive)
CC[C@@]1(O)C(=O)OCc2c1cc1n(c2=O)Cc2c-1nc1ccccc1c2Cl	0.211 µM (active)	< 0.01 µM (active)	< 0.0107 µM (active)	8.32 µM (inactive)	0.0123 µM (active)	0.0724 µM (active)	0.267 µM	< 0.01 µM (active)	< 0.01 µM (active)	0.124 µM (active)	< 0.0132 µM (active)	< 0.01 µM (active)	< 0.01 µM (active)	0.659 µM (active)	< 0.01 µM (active)	0.204 µM (active)	< 0.01 µM (active)	0.0348 µM (active)	0.56 µM (active)	0.521 µM (active)
COC(=O)[C@@H]1C[C@]2(CC=C(C)C)c3ccccc3N(S(=O)(=O)c3ccccc3)[C@@H]2N1C(=O)OC	–	5.33 µM (inactive)	34.1 µM (inactive)	20.4 µM (inactive)	13.1 µM (inactive)	15.1 µM (inactive)	10.4 µM	4.5 µM (inactive)	14.1 µM (inactive)	19.7 µM (inactive)	8.22 µM (inactive)	9.14 µM (inactive)	28.8 µM (inactive)	3.83 µM (inactive)	24.3 µM (inactive)	47.1 µM (inactive)	21.5 µM (inactive)	40.6 µM (inactive)	18.1 µM (inactive)	10.6 µM (inactive)
COC(=O)C1=C(C(=O)OC)SC(=C2SCSC3=C2SC(C(=O)OC)=C(C(=O)OC)C32SC3=C(CCCC3)S2)S1	> 100 µM (inactive)	> 100 µM (inactive)	55.7 µM (inactive)	95.3 µM (inactive)	13.9 µM (inactive)	56.2 µM (inactive)	> 100 µM	> 100 µM (inactive)	> 100 µM (inactive)	> 100 µM (inactive)	19.4 µM (inactive)	> 100 µM (inactive)	> 100 µM (inactive)	> 100 µM (inactive)	83.9 µM (inactive)	> 100 µM (inactive)	> 100 µM (inactive)	> 100 µM (inactive)	> 100 µM (inactive)	> 100 µM (inactive)
